These results are taken from patent US6992079B2, “Substituted 11-phenyl-dibenzazepine compounds useful for the treatment or prevention of diseases characterized by abnormal cell proliferation” (President Fellows of Harvard College, priority 1997, dated 2006).

One data set relates to 3T3. The data set can be described thus: SRB antiproliferative assay. The format is cell-based. The settings on record: NIH3T3, 3T3 (Normal mouse), 5% FCS/5 day incubation. An excerpt:
(§1) The cells were passaged using Trypsin (Gibco).

In another data set the test system is ACHN. The data set can be described thus: SRB antiproliferative assay. The format is cell-based. The settings on record: Homo sapiens, ACHN (Renal), 5% FCS/5 day incubation.
Excerpt: as §1
Background: In SRB staining, fixed cells bind dye roughly in proportion to their protein.

A further data set deals with CaSki. The data set can be described thus: SRB antiproliferative assay. The following applies: Homo sapiens, Ca-Ski, CaSki (Cervical), 5% FCS/5 day incubation. The format is cell-based.
Excerpt: as §1

The next data set has as its system DU-145. The data set can be described thus: SRB antiproliferative assay. The format is cell-based. The following applies: Homo sapiens, DU-145 (Prostate), 5% FCS/5 day incubation.
Excerpt: as §1

A further data set deals with GM. The data set can be described thus: SRB antiproliferative assay. The format is cell-based. The following applies: GM (Normal human), 5% FCS/5 day incubation.
Excerpt: as §1

In another data set the test system is HCT-15. Briefly: SRB antiproliferative assay. The format is cell-based. The settings on record: Homo sapiens, HCT-15 (Colon), 5% FCS/5 day incubation.
Excerpt: as §1

The test system of another data set is HTB174. Briefly: SRB antiproliferative assay. The format is cell-based. The following applies: Homo sapiens, HTB174 (Lung), 5% FCS/5 day incubation.
Excerpt: as §1

The next data set concerns HUVEC. Briefly: SRB antiproliferative assay. The format is cell-based. The following applies: HUVEC (Normal human), 5% FCS/5 day incubation.
Excerpt: as §1

In the next data set the test system is L929. Briefly: SRB antiproliferative assay. The format is cell-based. The settings on record: L929 (Normal mouse), 5% FCS/5 day incubation.
Excerpt: as §1

Another data set concerns SK-MEL-28. The data set can be described thus: SRB antiproliferative assay. The format is cell-based. The following applies: Homo sapiens, SK-MEL-28 (Melanoma), 5% FCS/5 day incubation.
Excerpt: as §1

Another data set has as its system SK-OV-3. Briefly: SRB antiproliferative assay. The format is cell-based. The following applies: Homo sapiens, SK-OV-3 (Ovary), 5% FCS/5 day incubation.
Excerpt: as §1

Data set [1] concerns PC-3 human prostate carcinoma. Briefly: Mouse xenograft tumor growth. The format is in vivo.
In data set [2] the test system is PC-3 Human Prostate Tumor cells. The data set can be described thus: XTT growth inhibition assay. The format is cell-based. The following applies: PC-3 cells. On the technique in general: Formazan colour is commonly taken as a measure of viable cells.
Data set [3] relates to Ca^2+ from intracellular pools / capacitative Ca^2+ influx. The data set can be described thus: Intracellular Ca2+ release and capacitative Ca2+ influx. The format is cell-based. The following applies: in vitro.
Data set [4] relates to cyclin D1 and E expression. The data set can be described thus: Cyclin expression and cell cycle in vitro. The format is cell-based.
Data set [5] has as its system dominant negative PKR mutant cells. The data set can be described thus: Growth of dominant negative PKR mutant cells. The format is cell-based. The settings on record: FIG. 12.
Data set [6] in a line: Preliminary toxicity studies in mice and rats. The format is in vivo.
The subject of the next data set is HCC-2998. The data set can be described thus: In-Vitro Testing SRB panel: Colon Cancer. The format is cell-based. An excerpt: The dose-response curve page of the data package is created by plotting the PGs against the log10 of the corresponding concentration for every cell line. The cell line curves are grouped by subpanel. Horizontal lines are provided at the PG values of […]. The concentrations corresponding to points where the curves cross these lines are the GI50, TGI, and LC50, respectively.

[7] abbreviates: administered intraperitoneally, orally or subcutaneously.

For orientation: IC50 means the concentration that gives 50% inhibition. A low value points to greater potency in that assay. In general, GI50 refers to the concentration at which growth is held to half of that of the control. A lower GI50 goes with more potent growth inhibition.

As for `O=C(c1ccc([N+](=O)[O-])cc1)N1Cc2ccccc2C(c2ccccc2Cl)c2ccccc21` (stereo not drawn) [Compound 28, N-(4′-Nitrobenzoyl)-11-(2′-chlorophenyl)-5,6-dihydro-11H-dibenz[b,e]azepine], the IC50 was more than 1 µM in the data set on 3T3; 0.7 µM in the data set with ACHN; 0.5 µM in the data set with CaSki; 0.9 µM in the data set on DU-145; 0.9 µM in the data set with GM; 0.4 µM with HCT-15. The IC50 in the data set on HTB174 is 0.1 µM; with HUVEC it was 0.7 µM; with L929 it was 0.6 µM; with SK-MEL-28, 0.4 µM; in the data set on SK-OV-3, more than 1 µM. Moreover, in data set [1] (PC-3 mouse xenograph), the apparent toxicity result is “no sign of apparent toxicity”. The “growth of PC-3 human prostate carcinoma” value in [1] (mouse xenograph) is listed as “significant inhibitory effects on the growth”. Moreover, the “PC-3 prostate cancer cell growth (XTT)” value in data set [2] is reported as “inhibits PC-3 prostate cancer cell growth”. The “Ca^2+ release from intracellular pools” value in [3] was “releases Ca^2+ from intracellular pools”. In addition, the “capacitative Ca^2+ influx into the cell” value in data set [3] was “inhibits capacitative Ca^2+ influx”. Moreover, the cell cycle arrest result in data set [4] is on record as “induction of G0-G1 cell cycle arrest”. The “cyclin D1 and E expression” value in data set [4] was “inhibit cyclin D1 and E expression”. Moreover, the “resistance of dominant negative PKR mutant cells to compound” value in [5] is on record as “resistance of dominant negative PKR mutant cells”. For the same compound, in [6] (setting [7]), the body weight losses result is recorded as “did not cause significant body weight losses”. Moreover, the “gross observations of brain, heart, lungs, liver, spleen, kidney and gastrointestinal tract” value in data set [6] (setting [7]) is on record as “no abnormalities were detected”. Moreover, the systemic toxicity result in data set [6] (mice and rats) is “no obvious systemic toxicity”.
Regarding `COc1cccc2c1C(c1ccccc1Cl)c1cc(Cl)ccc1N(C(=O)c1ccc([N+](=O)[O-])cc1)C2` (stereo not drawn) [Compound 31], the TGI with HCC-2998 (HCC-2998) is on record as more than 1.00E−04 Molar. In addition, the “Percent Growth” value was determined as 33% with HCC-2998 (HCC-2998, log10 conc -4 Molar); 45% in the data set on HCC-2998 (HCC-2998, log10 conc -5 Molar); 59% in the data set on HCC-2998 (HCC-2998, log10 conc -6 Molar); 93% with HCC-2998 (HCC-2998, log10 conc -7 Molar); 104% in the data set with HCC-2998 (HCC-2998, log10 conc -8 Molar). The same compound came in with a GI50 in the data set on HCC-2998 (Homo sapiens, HCC 2998) of 4.34 µM. Besides, the CC50 in the data set on HCC-2998 (Homo sapiens, HCC-2998, read-out: LC50 (the source's name)) was more than 100 µM.
